Results on one molecule are retold here after article PMC7239824, “Impact of intracellular hemin on N-type inactivation of voltage-gated K^+ channels” (Pflugers Archiv, 2020).

Molecules are shown by their SMILES.

The test concerns the target T1, hKvβ1.1 1-140 (Homo sapiens, UniProt Q14722).
T1 construct: gene KCNAB1; E. coli BL21(DE3) pRIL; NHS-dye labelled
T1 sequence (Q14722 1-140 isoform Q14722-2): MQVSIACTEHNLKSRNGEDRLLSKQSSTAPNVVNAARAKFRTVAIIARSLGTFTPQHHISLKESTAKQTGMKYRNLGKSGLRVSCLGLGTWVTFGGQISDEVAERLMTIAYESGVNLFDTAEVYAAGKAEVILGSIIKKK
Put plainly: microscale thermophoresis. As to conditions: read-out: binding constant. On the technique in general: In MST a laser heats a spot of the sample, and binding alters the fluorescence response.

As for `C=CC1=C(C)C2=Cc3c(C=C)c(C)c4[n]3[Fe]([Cl])[n]3c(c(C)c(CCC(=O)O)c3=CC3=NC(=C4)C(C)=C3CCC(=O)O)=CC1=N2` [hemin], the Kd was 0.098 ± 0.014 µM.
